Experimental data as given in US20060052344A1, “Heterocyclic silicon compounds and their use in the treatment of diseases or conditions associated with gnrh (gonadotropin-releasing hormone)” (priority 2002, published 2006).
Where “and” joins values, the source holds several entries; their conditions need not be identical. Equal entries are not always repeated.

melting point: 139 °C and 139 to 140 °C
SMILES: COc1cc(OC)c(NC(=O)c2ccc(Cc3cc4c(cc3C)[Si](C)(C)CC[Si]4(C)C)o2)c(OC)c1
